Measurements published in ChEMBL document CHEMBL4130353, “2-Substituted 3,7,8-trimethylnaphtho[1,2-b]furan-4,5-diones as specific L-shaped NQO1-mediated redox modulators for the treatment of non-small cell lung cancer” (Eur J Med Chem, 2017).
≈ marks a conversion by molar mass, not a printed value. Calls of active or inactive are those of the source. The rule behind the calls is not given here.

How the values were obtained:
HCT-116 = assay: Cytotoxicity against human HCT116 cells assessed as cell growth inhibition preincubated for 24 hrs followed by compound washout measured after 72 hrs by MTT assay; format: functional, cell-based
A549 [1] = assay: Cytotoxicity against human A549 cells assessed as cell growth inhibition preincubated for 24 hrs followed by compound washout measured after 72 hrs by MTT assay; format: functional, cell-based
[2] = molecular target: NAD(P)H dehydrogenase [quinone] 1 (Homo sapiens) (UniProt P15559); assay: Substrate activity at NQO1 in human A549 cells assessed as induction of ROS-induced ERK phosphorylation at 10 uM after 3 hrs in presence of NAC by Western blot analysis relative to control; format: cell-based
[3] = molecular target: NAD(P)H dehydrogenase [quinone] 1 (Homo sapiens) (UniProt P15559); assay: Substrate activity at NQO1 in human A549 cells assessed as induction of ROS-induced JNK phosphorylation at 1 uM after 3 hrs by Western blot analysis relative to control; format: cell-based
[4] = Effective permeability of the compound at pH 7.4 by PAMPA assay; format: ADME; conditions: read-out: Peff
HepG2 = assay: Cytotoxicity against human HepG2 cells assessed as cell growth inhibition preincubated for 24 hrs followed by compound washout measured after 72 hrs by MTT assay; format: functional, cell-based
[5] = molecular target: NAD(P)H dehydrogenase [quinone] 1 (Homo sapiens) (UniProt P15559); assay: Substrate activity at NQO1 in human A549 cells assessed as induction of ROS-induced ERK phosphorylation at 10 uM after 3 hrs by Western blot analysis relative to control; format: cell-based
[6] = Lipophilicity, log D of the compound at pH 7.4; format: physicochemical; conditions: buffer
[7] = molecular target: NAD(P)H dehydrogenase [quinone] 1 (Homo sapiens) (UniProt P15559); assay: Substrate activity at NQO1 in human A549 cells assessed as induction of enzyme-catalyzed ROS production at 10 uM after 1 to 3 hrs in presence of DIC by DCFH-DA-based flow cytometry; format: cell-based
A549 [8] = assay: Effect on total p38 protein levels in human A549 cells at 10 uM after 3 hrs by Western blot analysis relative to control; format: ADME, cell-based; conditions: a549, 3 h
[9] = molecular target: NAD(P)H dehydrogenase [quinone] 1 (Homo sapiens) (UniProt P15559); assay: Substrate activity at NQO1 in human A549 cells assessed as induction of ROS-induced p38 phosphorylation at T180/Y182 at 1 uM after 3 hrs by Western blot analysis relative to control; format: cell-based
A549 [10] = assay: Effect on total p38 protein levels in human A549 cells at 5 uM after 3 hrs by Western blot analysis relative to control; format: ADME, cell-based; conditions: a549, 3 h
[11] = molecular target: NAD(P)H dehydrogenase [quinone] 1 (Homo sapiens) (UniProt P15559); assay: Substrate activity at NQO1 in human A549 cells assessed as induction of ROS-induced JNK phosphorylation at 10 uM after 3 hrs in presence of NAC by Western blot analysis relative to control; format: cell-based
[12] = molecular target: NAD(P)H dehydrogenase [quinone] 1 (Homo sapiens) (UniProt P15559); assay: Substrate activity at NQO1 in human A549 cells assessed as induction of ROS-induced Akt phosphorylation at […] at 1 uM after 3 hrs by Western blot analysis relative to control; format: cell-based
A549 [13] = assay: Effect on total ERK protein levels in human A549 cells at 5 uM after 3 hrs by Western blot analysis relative to control; format: ADME, cell-based; conditions: a549, 3 h
[14] = molecular target: NAD(P)H dehydrogenase [quinone] 1 (Homo sapiens) (UniProt P15559); assay: Substrate activity at NQO1 in human A549 cells assessed as induction of enzyme-catalyzed ROS production at 10 uM after 1 to 3 hrs by DCFH-DA-based flow cytometry; format: cell-based
A549 [15] = assay: Effect on total p38 protein levels in human A549 cells at 10 uM after 3 hrs in presence of DIC by Western blot analysis relative to control; format: ADME, cell-based; conditions: a549, 3 h
L02 = assay: Induction of intracellular ROS levels in human L02 cells at 10 uM after 1 to 3 hrs by DCFH-DA-based flow cytometry; format: cell-based; conditions: l02, 10 µM
Homo sapiens = organism: Homo sapiens; assay: Selectivity ratio for substrate activity at recombinant human NQO1 to substrate activity at human CPR
A549 [16] = assay: Effect on total AKT protein levels in human A549 cells at 5 uM after 3 hrs by Western blot analysis relative to control; format: ADME, cell-based; conditions: a549, 3 h
A549 [17] = assay: Antitumor activity against human A549 cells xenografted in athymic nude mouse assessed as tumor growth inhibition at 15 mg/kg, iv administered every other day for 3 weeks measured every day during compound dosing relative to control; format: functional; conditions: 504 h, read-out: TGI
A549 [18] = assay: Effect on total ERK protein levels in human A549 cells at 1 uM after 3 hrs by Western blot analysis relative to control; format: ADME, cell-based; conditions: a549, 3 h
Mus musculus = assay: Toxicity in athymic nude mouse xenografted with human A549 cells assessed as reduction in body weight at 50 mg/kg, iv administered every other day for 3 weeks relative to control; format: organism-based; parameters: scale not given: the % may be the effect or the level left; conditions: in vivo, 504 h
[19] = molecular target: NAD(P)H dehydrogenase [quinone] 1 (Homo sapiens) (UniProt P15559); assay: Substrate activity at NQO1 in human A549 cells assessed as induction of enzyme-catalyzed lipid peroxidation by measuring MDA equivalents per protein at 10 uM after 24 hrs by TBARS assay; format: cell-based
A549 [20] = assay: Induction of apoptosis in human A549 cells assessed as increase in cleaved PARP expression after 24 hrs by Western blot analysis; format: functional, cell-based
[21] = molecular target: NAD(P)H dehydrogenase [quinone] 1 (Homo sapiens) (UniProt P15559); assay: Substrate activity at NQO1 in human A549 cells assessed as induction of ROS-induced Akt phosphorylation at S473 after 3 hrs by Western blot analysis; format: cell-based
A549 [22] = assay: Effect on total AKT protein levels in human A549 cells at 10 uM after 3 hrs in presence of DIC by Western blot analysis relative to control; format: ADME, cell-based; conditions: a549, 3 h
HEK293 = assay: Cytotoxicity against HEK293 cells assessed as cell growth inhibition preincubated for 24 hrs followed by compound washout measured after 72 hrs by MTT assay; format: functional, cell-based; conditions: Homo sapiens
[23] = molecular target: NAD(P)H dehydrogenase [quinone] 1 (Homo sapiens) (UniProt P15559); assay: Substrate activity at NQO1 in human A549 cells assessed as induction of ROS-induced Akt phosphorylation at S473 at 10 uM after 3 hrs in presence of NAC by Western blot analysis relative to control; format: cell-based
[24] = molecular target: NAD(P)H dehydrogenase [quinone] 1 (Homo sapiens) (UniProt P15559); assay: Substrate activity at NQO1 in human A549 cells assessed as induction of ROS-induced ERK phosphorylation at 1 uM after 3 hrs by Western blot analysis relative to control; format: cell-based
[25] = molecular target: NAD(P)H dehydrogenase [quinone] 1 (Homo sapiens) (UniProt P15559); assay: Substrate activity at NQO1 in human A549 cells assessed as induction of ROS-induced p38 phosphorylation at T180/Y182 at 10 uM after 3 hrs by Western blot analysis relative to control; format: cell-based
Danio rerio = organism: Danio rerio; assay: Hepatotoxicity in 48 hrs post fertilized transgenic liver zebrafish larvae model expressing LFABP:EGFP protein at 10 uM measured after 48 hrs post dose by fluorescence based assay; format: organism-based; conditions: in vivo
[26] = Intrinsic solubility of the compound; format: physicochemical; conditions: read-out: Intrinsic_solubility
[27] = molecular target: NAD(P)H dehydrogenase [quinone] 1 (Homo sapiens) (UniProt P15559); assay: Substrate activity at NQO1 in human A549 cells assessed as induction of ROS-induced ERK phosphorylation at 10 uM after 3 hrs in presence of DIC by Western blot analysis relative to control; format: cell-based

Sequence of NAD(P)H dehydrogenase [quinone] 1 (Homo sapiens) (P15559 whole entry): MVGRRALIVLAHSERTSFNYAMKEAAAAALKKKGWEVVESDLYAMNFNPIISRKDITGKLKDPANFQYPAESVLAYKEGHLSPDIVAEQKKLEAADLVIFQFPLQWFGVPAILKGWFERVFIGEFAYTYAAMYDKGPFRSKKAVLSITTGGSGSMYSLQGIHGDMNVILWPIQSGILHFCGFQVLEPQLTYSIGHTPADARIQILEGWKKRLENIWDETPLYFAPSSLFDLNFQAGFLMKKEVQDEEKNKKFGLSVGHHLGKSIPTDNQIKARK

- fold change (FC) [2]: 2.21
- fold change (FC) [3]: 17.4
- Papp [4]: 46.5 ×10⁻⁶ cm/s
- fold change (FC) [5]: 2.49
- logD [6]: 3.1
- Activity [7]: inactive
- fold change (FC) (A549 [8]): 1.1
- fold change (FC) [9]: 11.1
- fold change (FC) (A549 [10]): 1.1
- fold change (FC) [11]: 12.5
- fold change (FC) [12]: 2.38
- fold change (FC) (A549 [13]): 0.97
- Activity [14]: Active
- fold change (FC) (A549 [15]): 1.03
- Selectivity ratio (Homo sapiens): 20.8
- fold change (FC) (A549 [16]): 1.14
- fold change (FC) (A549 [18]): 1.01
- Activity [19]: 18.6 nmol/mg
- Activity [21]: Dose-dependent effect
- fold change (FC) (A549 [22]): 1.15
- fold change (FC) [23]: 0.32
- fold change (FC) [24]: 2
- fold change (FC) [25]: 16.4
- solubility [26]: 360 µg/mL (≈ 810 µM)
- fold change (FC) [27]: 1.27
SMILES: Cc1cc2c(cc1C)-c1oc(CNc3ccc(CN4CCOCC4)cc3)c(C)c1C(=O)C2=O
- IC50 (HCT-116): 4.9 µM
- IC50 (A549 [1]): 2.1 µM
- IC50 (HepG2): 4.3 µM
- Activity (L02): Non-Toxic
- inhibition in vivo at 15 mg/kg (A549 [17]): 65.8%
- Activity (Mus musculus): 18%
- Activity (A549 [20]): Dose-dependent effect
- IC50 (HEK293): 3.9 µM
- Activity (Danio rerio): Non-Toxic
